According to publication PMC9627135 (Cancer discovery, 2022):

Key:
[1] = system: HOXA9/10 expression; assay: Time course of HOXA9/10 expression; type: cell-based; conditions: Supplementary Fig. S6D, S6E
[2] = system: primary human hepatocytes; conditions: cited from earlier work
[3] = target: ENL-FKBP12(F36V) (Homo sapiens, UniProt Q03111); assay: dTAG-mediated degradation of ENL-FKBP12; type: cell-based; conditions: treatment for 6 or 24 hours

CC(C)N(C[C@H]1O[C@@H](n2cnc3c(N)ncnc32)[C@H](O)[C@@H]1O)[C@H]1C[C@@H](CCc2nc3cc(C(C)(C)C)ccc3[nH]2)C1 [EPZ-5676]
kinetics of suppression of HOXA9/10 expression [1]: suppressed expression of the same genes at much later time points

C[C@H]1CCCN1Cc1nc2cc(NC(=O)c3ccc4c(cnn4C)c3)ccc2[nH]1 [SGC-iMLLT]
half-life in primary human hepatocytes [2]: modest half-life

CC[C@H](C(=O)N1CCCC[C@H]1C(=O)O[C@H](CCc1ccc(OC)c(OC)c1)c1ccccc1OCC(=O)NCCCCCCOc1cccc2c1C(=O)N(C1CCC(=O)NC1=O)C2=O)c1cc(OC)c(OC)c(OC)c1 (stereo partly drawn) [dTAG13]
level of ENL-FKBP12 proteins [3]: substantial decrease of ENL-FKBP12 proteins
